Laboratory results reported in patent publication US8563742B2, “Substituted aminothiazole derivatives, pharmaceutical compositions, and methods of use” (High Point Pharmaceuticals, LLC, priority 2008, dated 2013).
Read-outs that look alike come from different tables or passages of the source.

How the values were obtained:
[1] = molecular target: T1, human MC-4R (Homo sapiens, UniProt P32245); experiment: Biological Assay: inhibition of AgRP functional interaction with MC-4R in presence of αMSH (cAMP production); format: cell-based; details: HEK293 cells expressing human MC-4R, AgRP83-132 and αMSH present
T1 construct: expressed in transfected cells
Procedure: The following method is illustrative of techniques that may be employed to measure the ability of the compounds of Formula (I) to functionally modulate the binding of AgRP to melanocortin receptors. In particular, the assay below measures the ability of compounds of Formula (I) or pharmaceutically acceptable salts thereof to functionally modulate the binding of AgRP to MC-4R in the presence of a MC-4R agonist, such as alpha-MSH.
HEK293 cells stably expressing human MC-4R receptors were grown in high glucose Dulbecco's Modified Eagle Medium (DMEM) with 4500 mg glucose/L, L-glutamine, NaHCO3, pyrdoxin HCl, 10 mM HEPES (pH 7.4), 0.1 mM NEAA (non-essential amino acid medium) (GIBCO Cat#11140-050), 10% fetal bovine serum and 700 μg/mL G418. Cells were grown in T-225 flasks at 37° C. with CO2 and humidity control.
On the day of assay, cells were washed twice with phosphate buffered saline without calcium and magnesium (PBS) and incubated with 10 mL PBS until the cells were detached from the flask. The detached cells were centrifuged at 240 g for 5 min. The cell pellet was re-suspended in assay buffer (Earle's balanced salt solution (Sigma E3024) supplemented with 10 mM HEPES, pH 7.4, 0.5 mM IBMX and protease inhibitor cocktail (Roche, 1 complete tablet/75 mL buffer)).
The inhibitory or enhancement effect of compounds on AgRP activity was measured in a multi-component assay containing testing compounds, AgRP83-132 (human, Phoenix Pharma, cat no. 003-53), cells expressing MC-4R, and αMSH (Bachem, cat no. H-1075). Test compounds, AgRP and αMSH were diluted with assay buffer. Test compounds and AgRP were mixed to 4 times of the final concentration and incubated at room temperature for 30 min. Five μL of testing compound/AgRP solution followed with 10 μL of cells (20,000 cells/well) were added to each well of a 384-well reaction plate before 5 μL of αMSH was added. Cells were stimulated with αMSH for an additional 30 min at 37° C.
Stimulation of cells was stopped by adding a lysis buffer and cells were lysed. The intracellular concentration of cAMP may be measured by various techniques known to one of skill in the art including, but not limited to, fluorescence polarization (FP) and time-resolved fluorescence (TRF).
The inhibition was shown by an increase in MC-4R mediated cAMP production.

[2] = Pharmacokinetic screening in rats (plasma and brain); details: rat, 5 mg/kg PO; for concentration at 2 h: male, Sprague Dawley, po, 5 mg/kg, 2 hour time point; for Brain - 24 hours AUC (h * ng/g): 24 hour study
[3] = Stability in Liver Microsomes (dog); format: in vitro ADME; details: 1 μM, 0.5 mg protein/mL, NADPH, 60 minutes, 37° C., pH 7.4
Procedure: (§1) Various compounds were tested for their stability in human, monkey, dog, rat, and mouse liver microsomes. At a final concentration of 1 μM, compounds were incubated with either human, monkey, dog, rat, or mouse liver microsomes (0.5 mg protein/mL) in the presence of an NADPH-solution for 60 minutes at 37° C., pH 7.4 in phosphate buffer. Incubations were performed in duplicate. Reactions were terminated by the addition of methanol. The incubation solution was vortexed and transferred into a 96-well plate. The plate was sealed and centrifuged at approximately 3500 rpm for approximately 10 minutes. After centrifugation, the plate was loaded into 96-well plate autosampler and analyzed by LC/MS. Values are reported as percent of compound remaining after 1 hour.

[4] = Stability in Liver Microsomes (monkey); format: in vitro ADME; details: 1 μM, 0.5 mg protein/mL, NADPH, 60 minutes, 37° C., pH 7.4
Procedure: as §1

[5] = Stability in Liver Microsomes (mouse); format: in vitro ADME; details: 1 μM, 0.5 mg protein/mL, NADPH, 60 minutes, 37° C., pH 7.4
Procedure: as §1

[6] = Stability in Liver Microsomes (human); format: in vitro ADME; details: 1 μM, 0.5 mg protein/mL, NADPH, 60 minutes, 37° C., pH 7.4
Procedure: as §1

[7] = Stability in Liver Microsomes (rat); format: in vitro ADME; details: 1 μM, 0.5 mg protein/mL, NADPH, 60 minutes, 37° C., pH 7.4
Procedure: as §1

[8] = read-out: Average EC50 (nM) in Biological Assay
[9] = plasma, Plasma - 2 hours (ng/mL)

T1 sequence (P32245 whole entry): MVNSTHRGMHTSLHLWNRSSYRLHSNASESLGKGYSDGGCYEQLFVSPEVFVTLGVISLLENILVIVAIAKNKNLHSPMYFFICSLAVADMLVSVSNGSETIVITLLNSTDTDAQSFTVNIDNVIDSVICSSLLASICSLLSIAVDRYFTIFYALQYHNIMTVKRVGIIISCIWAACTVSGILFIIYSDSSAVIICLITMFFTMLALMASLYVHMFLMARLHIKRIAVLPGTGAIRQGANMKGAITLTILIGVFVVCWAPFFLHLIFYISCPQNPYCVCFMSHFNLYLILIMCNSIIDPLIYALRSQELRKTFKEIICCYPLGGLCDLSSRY

Row | EC50 [1, 8] [nM] | concentration at 2 h ([2]; brain, Brain - 2 hours (ng/g)) [ng/g] | concentration at 2 h [2, 9] [ng/mL] | SMILES | further results
1 | 135 | 80 | 261 | CCc1ccc(CN(CCC(=O)O)c2nc(C3CCCCC3)cs2)s1 [Example 2, 3-[(4-cyclohexyl-thiazol-2-yl)-(5-ethyl-thiophen-2-ylmethyl)-amino]-propionic acid] | 
2 | 246 | 691 | 2650 | CCc1ccc(CN(CCC(=O)O)c2nc(CC3CCCCC3)cs2)s1 [Example 3, 3-[(4-Cyclohexylmethyl-thiazol-2-yl)-(5-ethyl-thiophen-2-ylmethyl)-amino]-propionic acid] | 
3 | 324 | 98 | 590 | CCc1ccc(CN(CCC(=O)O)c2nc(CC3CCCC3)cs2)s1 [Example 4, 3-[(4-Cyclopentylmethyl-thiazol-2-yl)-(5-ethyl-thiophen-2-ylmethyl)-amino]-propionic acid] | 
4 | 250 | 248 | 445 | Cc1ccc(CN(CCC(=O)[O-])c2nc(C3(c4ccccc4)CCCCC3)cs2)s1.[Na+] [Example 6, Sodium; 3-{(5-methyl-thiophen-2-ylmethyl)-[4-(1-phenyl-cyclohexyl)-thiazol-2-yl]-amino}-propionate] | Brain - 24 hours AUC (h * ng/g) [2]: + (values less than 5,000 h*ng/g)
5 |  |  |  | CCC1CCC(c2csc(N(CCC(=O)O)Cc3ccc(C)s3)n2)CC1 (stereo not shown) [Example 19, 3-[[4-(4-Ethyl-cyclohexyl)-thiazol-2-yl]-(5-methyl-thiophen-2-ylmethyl)-amino]-propionic acid] | Stability in Liver Microsomes (% remaining after 1 hour incubation) Dog [3]: 87%; Stability in Liver Microsomes (% remaining after 1 hour incubation) Monkey [4]: 60%; EC50 ([1]; Average EC50 (nM) in Biological Assay): 386 nM; Stability in Liver Microsomes (% remaining after 1 hour incubation) Mouse [5]: 73%; Stability in Liver Microsomes (% remaining after 1 hour incubation) Human [6]: 43%; Stability in Liver Microsomes (% remaining after 1 hour incubation) Rat [7]: 52%
6 | 116 | 42 | 50 | Cc1ccc(CN(CCC(=O)O)c2nc(C3(CC(C)C)CCCC3)cs2)s1 [Example 42, 3-[[4-(1-Isobutyl-cyclopentyl)-thiazol-2-yl]-(5-methyl-thiophen-2-ylmethyl)-amino]-propionic acid] | 
7 | 58 | 886 | 2090 | CCc1ccc(CN(CCC(=O)[O-])c2nc(C3(C)CCC(C)CC3)cs2)s1.[Na+] (stereo not shown) [Example 47, Sodium; 3-[[4-(1,4-dimethyl-cyclohexyl)-thiazol-2-yl]-(5-ethyl-thiophen-2-ylmethyl)-amino]-propionate] | Brain - 24 hours AUC (h * ng/g) [2]: + (values less than 5,000 h*ng/g)
8 | 73 | 251 | 486 | Cc1ccc(CN(CCC(=O)O)c2nc(C3(C)CCC(C(C)C)CC3)cs2)s1 (stereo not shown) [Example 48, Sodium; 3-[[4-(4-isopropyl-1-methyl-cyclohexyl)-thiazol-2-yl]-(5-methyl-thiophen-2-ylmethyl)-amino]-propionate] | 
9 | 307 |  |  | Cc1ccc(CN(CCC(=O)O)c2nc(C3CC(C)(C)CC(C)(C)C3)cs2)s1 [Example 53, 3-{(5-methyl-thiophen-2-ylmethyl)-[4-(3,3,5,5-tetramethyl-cyclohexyl)-thiazol-2-yl]-amino}-propionic acid] | 
10 | 36 | 2980 | 7710 | CCc1ccc(CN(CCC(=O)O)c2nc(C3CCC(C)(C)CC3)cs2)s1 [Example 54, 3-[[4-(4,4-Dimethyl-cyclohexyl)-thiazol-2-yl]-(5-ethyl-thiophen-2-ylmethyl)-amino]-propionic acid] | Brain - 24 hours AUC (h * ng/g) [2]: ++++ (values above 20,000 h*ng/g)
11 | 217 |  |  | Cc1ccc(CN(CCC(=O)O)c2nc(C3CCC(C)(C)CC3)c(C)s2)s1 [Example 56, Sodium; 3-[[4-(4,4-dimethyl-cyclohexyl)-5-methyl-thiazol-2-yl]-(5-methyl-thiophen-2-ylmethyl)-amino]-propionate] | 
12 | 187 |  |  | Cc1ccc(CN(CCC(=O)O)c2nc(C3CC4CCCCC4C3)cs2)s1 (stereo not shown) [Example 57, 3-{(5-Methyl-thiophen-2-ylmethyl)-[4-(octahydro-inden-2-yl)-thiazol-2-yl]-amino}-propionic acid] | 
13 | 94 | 720 | 1330 | CCc1ccc(CN(CCC(=O)O)c2nc(C3CC4CCCCC4C3)cs2)s1 (stereo not shown) [Example 58, 3-{(5-Ethyl-thiophen-2-ylmethyl)-[4-(octahydro-inden-2-yl)-thiazol-2-yl]-amino}-propionic acid] | 
14 | 160 |  |  | Cc1cc(CN(CCC(=O)O)c2nc(C3CC4CCCCC4C3)cs2)c(C)s1 (stereo not shown) [Example 59, 3-{(2,5-Dimethyl-thiophen-3-ylmethyl)-[4-(octahydro-inden-2-yl)-thiazol-2-yl]-amino}-propionic acid] | 
15 | 321 |  |  | Cc1ccc(CN(CCC(=O)O)c2nc(C3CCC4(CCCC4)CC3)cs2)s1 [Example 62, 3-[(5-methyl-thiophen-2-ylmethyl)-(4-spiro[4.5]dec-8-yl-thiazol-2-yl)-amino]-propionic acid] | 
16 | 283 |  |  | Cc1ccc(CN(CCC(=O)O)c2nc(C3CCC4(CCCCC4)CC3)cs2)s1 [Example 63, 3-[(5-methyl-thiophen-2-ylmethyl)-(4-spiro[5.5]undec-3-yl-thiazol-2-yl)-amino]-propionic acid] | 
17 | 90 |  |  | Cc1ccc(CN(CCC(=O)O)c2nc(CC3CCC(C)(C)CC3)cs2)s1 [Example 64, 3-[[4-(4,4-dimethyl-cyclohexylmethyl)-thiazol-2-yl]-(5-methyl-thiophen-2-ylmethyl)-amino]-propionic acid] | 
18 |  |  |  | CC(C)(C)[C@H]1CC[C@H](c2csc(N(CCC(=O)O)Cc3cccs3)n2)CC1 [Reference Compound D, Sodium 3-[[4-(trans-4-tert-butyl-cyclohexyl)-thiazol-2-yl]-(thiophen-2-ylmethyl)-amino]-propionate, reference compound] | Stability in Liver Microsomes (% remaining after 1 hour incubation) Dog [3]: 47%; Stability in Liver Microsomes (% remaining after 1 hour incubation) Monkey [4]: 76%; Stability in Liver Microsomes (% remaining after 1 hour incubation) Mouse [5]: 79%; Stability in Liver Microsomes (% remaining after 1 hour incubation) Human [6]: 51%; Stability in Liver Microsomes (% remaining after 1 hour incubation) Rat [7]: 26%
19 |  |  |  | O=C([O-])CCN(Cc1cccs1)c1nc(C2CCC(c3ccccc3)CC2)cs1.[Na+] (stereo not drawn) [Reference Compound E, Sodium 3-[[4-(trans-4-phenyl-cyclohexyl)-thiazol-2-yl]-(5-thiophen-2-ylmethyl)-amino]-propionate, reference compound] | Stability in Liver Microsomes (% remaining after 1 hour incubation) Dog [3]: 50%; Stability in Liver Microsomes (% remaining after 1 hour incubation) Monkey [4]: 38%; Stability in Liver Microsomes (% remaining after 1 hour incubation) Mouse [5]: 51%; Stability in Liver Microsomes (% remaining after 1 hour incubation) Human [6]: 60%; Stability in Liver Microsomes (% remaining after 1 hour incubation) Rat [7]: 52%
20 |  |  |  | CCc1ccc(CN(CCC(=O)[O-])c2nc(-c3ccc(N4CCCC4)cc3)cs2)s1.[Na+] [Reference Compound F, reference compound] | Stability in Liver Microsomes (% remaining after 1 hour incubation) Dog [3]: 45%; Stability in Liver Microsomes (% remaining after 1 hour incubation) Monkey [4]: 5%; Stability in Liver Microsomes (% remaining after 1 hour incubation) Mouse [5]: 30%; Stability in Liver Microsomes (% remaining after 1 hour incubation) Human [6]: 40%; Stability in Liver Microsomes (% remaining after 1 hour incubation) Rat [7]: 27%
